# Test: Percutaneous absorption test of genistein-loaded amphiphilic polymer solution, Franz diffusion cell
# Type: in vitro ADME, porcine
# Procedure: The percutaneous absorption of genistein of the amphiphilic polymer solution in which genistein was loaded and which was prepared as above was evaluated using porcine skin (2×2 cm, thickness: 1000 μm) and a Franz diffusion cell (FIG. 2). A phosphate buffered saline (PBS) solution containing 30 wt % of dipropylene glycol (DPG) was used as an aqueous solution (acceptor solution) to maintain a sink condition with respect to genistein. 0.2 g of the amphiphilic polymer solution on which genistein was loaded was loaded in a Franz diffusion cell on which the porcine skin was mounted, and the test was performed at 32° C. similar to a skin temperature for 24 hours. Skin tissue into which genistein was absorbed was pulverized and extracted to analyze the content of genistein absorbed into the skin tissue and the content of genistein absorbed into the acceptor solution through HPLC, and the results are shown in Table 3.
substance,measurement,value
polycaprolactone (B)-polyethylene glycol (A)-polycaprolactone (B) copolymer [Comparative Example 1],Skin penetration amount,0.15 μg/cm^2
same,Skin penetration ratio,0.09%
